# What was measured:
# [1] = system: LLC tumor-bearing mice; conditions: as reported previously (ref 8); cited from earlier work
# [2] = system: p38α MAPK-mediated myogenic differentiation of C2C12 myoblasts; assay: myogenic differentiation of C2C12 myoblasts (MHC expression); assay type: cell-based, Murine; conditions: 96 hours differentiation
# Excerpt: (§1) Western blotting. All procedures were adhered to our previous publication ^12. The following primary antibodies were used: anti-p300 (1:500, sc584, Santa Cruz), anti-C/EBPβ (1:1000, MA1-827, Thermo Fisher), anti-pT188-C/EBPβ (1:1000, 3084, Cell Signaling Technology), anti-TLR4 (1:500, sc16240, Santa Cruz), anti-p38α MAPK (1:500, sc271120, Santa Cruz), anti-p38s MAPK (1:500, 2339, Cell Signaling Technology), anti-p38 MAPK (1:1000, 9212, Cell Signaling Technology), anti-p-p38 MAPK (1:1000, 4511, Cell Signaling Technology), anti-MAFbx (1:1000, AP2041, ECM Bioscience), anti-UBR2 (1:500, NBP1-45243, Novus Biologicals), anti-LC3 (1:2000, NB100-2220, Novus Biologicals) and anti-MHC (1:1000, MAB4470, R&D Systems). Antibody against acetylated Lys-39 of C/EBPβ (1:2000) was generated as previously described ^12. […] (SEQ ID NO: 1). Data were normalized to α-Tubulin (Development Studies Hybridoma Bank at the University of Iowa, Iowa City, Iowa).
# [3] = humans, 24 hours after first PO administration of 50 mg; cited from earlier work
# [4] = system: LLC tumor-bearing mice; assay: muscle wasting in LLC tumor-bearing mice; assay type: in vivo; conditions: 0.5 mg/kg/day i.p. from day 7 for 2 weeks
# Procedure: Mice were euthanized on day 21. The tumor was isolated and weighed, and then the net body weight was measured. Muscle samples were collected immediately for analyses of muscle wasting. […] Catabolic markers in TA muscle lysates were analyzed by Western blotting. […] Grip strength was measured on the day of euthanasia. […] H&E-stained TA cross sections were analyzed for the myofiber cross-sectional area. * signifies a statistically significant difference (p<0.05) determined by one-way ANOVA (FIGS. 5A-E) or Chi-square test (FIG. 5F).
# Animal use. Experimental protocols were pre-approved by the institutional Animal Welfare Committee at the University of Texas Health Science Center at Houston. LLC cells (1×10^6 in […]) were injected subcutaneously into the flanks of 8-week-old male C57B16 mice, TLR4^−/− mice in the C57BL/6 background ^17, or p38β MAPK muscle-specific knockout and p38β MAPK-floxed mice in the C57BL/6 background ^18. […] DMSO was injected accordingly as vehicle control. Plasmid encoding the p300-S12A mutant was transfected into TA muscle by electroporation on day 7 and day 14 following LLC implantation as described previously ^12. The contralateral TA was transfected with an empty vector as control. […] On day 21, mice were euthanized, and muscle samples were harvested for further analyses. For survival study, orthotopic implantation of KPC cells was performed based on the procedures by Zhu et al. ^19. Briefly, a longitudinal incision was made to open the abdominal cavity for pancreas exposure. Then, 2×10^6 KPC cells suspended in 20 μl PBS were injected to the tail of pancreas.
# as §1
# Fluorescence microscopy and histology study. C2C12 myotubes were stained with anti-MHC antibody (1:1000, MAB4470, R&D Systems) and anti-mouse Alexa Fluor® Plus 488 secondary antibody (1:200, A32723, ThermoFisher), and examined using a Zeiss Axioskop 40 microscope and a Zeiss Axiocam MRM camera system controlled by Axiovision Release 4.6 imaging software. Acquired images were edited using the Photoshop software. Myotube diameter was measured in MHC-stained myotubes as previously described ^12. Cross-sectional area of H&E-stained muscle sections was quantified by using the ImageJ software (NIH). Approximately 100 myofibers from each of 5 random views were quantified.
# [5] = target: p38β MAPK (Homo sapiens, UniProt Q15759); conditions: p38β MAPK vs p38α MAPK; cited from earlier work
# Chain of p38β MAPK (Q15759 whole entry): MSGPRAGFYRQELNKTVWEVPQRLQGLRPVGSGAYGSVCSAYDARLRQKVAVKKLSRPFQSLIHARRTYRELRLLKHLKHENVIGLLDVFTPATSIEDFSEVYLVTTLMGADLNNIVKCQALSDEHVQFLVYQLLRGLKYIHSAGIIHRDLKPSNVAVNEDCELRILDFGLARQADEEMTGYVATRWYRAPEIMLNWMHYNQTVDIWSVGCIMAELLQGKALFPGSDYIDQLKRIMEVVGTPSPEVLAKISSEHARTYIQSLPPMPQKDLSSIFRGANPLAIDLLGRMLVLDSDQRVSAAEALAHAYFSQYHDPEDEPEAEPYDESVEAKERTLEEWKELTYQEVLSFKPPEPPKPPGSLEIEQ
# [6] = system: p38β MAPK-mediated activation of p300 and C/EBPβ; assay: LCM-induced p300 activation (Ser-12 phosphorylation) and C/EBPβ acetylation in C2C12 myotubes, Western blotting; assay type: cell-based, Murine; conditions: LCM 2 h, concentration-dependent
# Procedure: Cell cultures. Murine C2C12 myoblasts (American Type Culture Collection, ATCC) and human skeletal myoblasts (GIBCO®) were grown in growth medium (DMEM supplemented with 10% fetal bovine serum) at 37° C. under 5% CO2. Myoblast differentiation was induced at 85% confluence with differentiation medium (DMEM supplemented with 4% heat-inactivated horse serum in) for 96 hrs. Preconditioned medium from 48-hour cultures of Lewis lung carcinoma cells (National Cancer Institute, Frederick, Md.), H1299 human lung carcinoma cells (ATCC) or KPC cells (a gift from Dr. Elizabeth Jaffee of Johns Hopkins University) 14 were collected and centrifuged (1000×g, 5 min). Conditioned medium of non-tumorigenic NL20 cells (human lung epithelial cells, ATCC) was used as control. The supernatant was used to treat myotubes (25% final volume in fresh medium) when indicated and replaced every 24 h. […] All cell lines were tested negative for mycoplasma contamination. Cell culture-based experiments were replicated independently for 3 times.
# Western blotting. All procedures were adhered to our previous publication ^12. […]
# [7] = system: UBR2; assay: LCM-induced UBR2 upregulation in C2C12 myotubes, Western blotting; assay type: cell-based, Murine; conditions: LCM 8 hours, concentration-dependent
# Excerpt: as §1
# [8] = system: p38 MAPK; assay: p38 MAPK activation and catabolic response in primary human myotubes treated with H1299 cell-conditioned medium; assay type: cell-based; conditions: 500 nM
# Excerpt: as §1
# [9] = system: KPC tumor-bearing mice; assay: survival and muscle wasting of mice bearing orthotopic KPC pancreatic tumor; assay type: in vivo
# Procedure: Survival of KPC tumor-bearing mice was recorded and analyzed using the Kaplan-Meier survival curve. […] Forelimb grip strength of the mice was monitored over the course of the survival study. Data were analyzed by 2-way ANOVA. * signifies a statistically significant difference (p<0.05).
# At the end point, both of DMSO or nilotinib-treated KPC tumor-bearing mice were euthanized. Tumors were isolated and weighted (left panel). Net body weight was measured (right panel).
# Animal use. Experimental protocols were pre-approved by the institutional Animal Welfare Committee at the University of Texas Health Science Center at Houston. LLC cells (1×10^6 in […]) were injected subcutaneously into the flanks of 8-week-old male C57B16 mice, TLR4^−/− mice in the C57BL/6 background ^17, or p38β MAPK muscle-specific knockout and p38β MAPK-floxed mice in the C57BL/6 background ^18. […] DMSO was injected accordingly as vehicle control. Plasmid encoding the p300-S12A mutant was transfected into TA muscle by electroporation on day 7 and day 14 following LLC implantation as described previously ^12. The contralateral TA was transfected with an empty vector as control. Development of cachexia was monitored by body weight and forelimb grip strength test, and usually took place within 21 days after implantation. On day 21, mice were euthanized, and muscle samples were harvested for further analyses. For survival study, orthotopic implantation of KPC cells was performed based on the procedures by Zhu et al. ^19. Briefly, a longitudinal incision was made to open the abdominal cavity for pancreas exposure. Then, 2×10^6 KPC cells suspended in 20 μl PBS were injected to the tail of pancreas.
# [10] = system: C2C12 myotubes; assay: LCM-induced loss of MHC and myotube mass in C2C12 myotubes; assay type: cell-based, Murine; conditions: 500 nM, LCM 72 hrs
# Excerpt: as §1
# Fluorescence microscopy and histology study. […] Myotube diameter was measured in MHC-stained myotubes as previously described ^12. Cross-sectional area of H&E-stained muscle sections was quantified by using the ImageJ software (NIH). Approximately 100 myofibers from each of 5 random views were quantified.
smiles,measurement,setting,value
Oc1ccc(-c2nc(-c3ccncc3)c(-c3ccc(F)cc3)[nH]2)cc1 [SB202190],LLC tumor-induced muscle wasting in mice,[1],attenuates
same,onset of myoblast differentiation (MHC expression at 24 and 48 hours),[2]; 10 μM,delayed
Cc1cn(-c2cc(NC(=O)c3ccc(C)c(Nc4nccc(-c5cccnc5)n4)c3)cc(C(F)(F)F)c2)cn1 [nilotinib],serum concentration,[3],approximately 400 ng/ml
same,LLC tumor growth,[4],without affecting tumor growth
same,activation of p300 (Ser-12 phosphorylation and Lys-39 acetylation of C/EBPβ) in TA muscle,[4],abolished
same,increase in autophagosome formation (LC3-II levels),[4],blockade
same,loss of MHC in muscle,[4],blockade
same,loss of TA and EDL weight,[4],attenuated
same,loss of body weight,[4],protected against the loss of body weight
same,loss of muscle strength (grip strength),[4],attenuated
same,myofiber cross-sectional area in TA,[4],preserved myofiber mass
same,upregulation of E3 ligases UBR2 and atroginl/MAFbx in TA muscle,[4],blockade
same,binding affinity for p38β MAPK higher than for p38α MAPK,[5],3 fold
same,C/EBPβ acetylation on Lys-39,[6],inhibited
same,MHC expression over the course of myoblast differentiation,[2]; 500 nM,did not alter MHC expression
same,LCM-induced upregulation of UBR2,[7],inhibited
same,C/EBPβ phosphorylation on Thr-188,[8]; 1 h,blockade
same,p38 MAPK activation by H1299 conditioned medium,[8]; 1 h,abrogated
same,upregulation of E3 ligase UBR2,[8]; 8 h,blockade
same,median survival,[9]; 0.5 mg/kg/day i.p. from day 5 until end point,31 days
same,tumor volume at the end point versus DMSO,"[9]; 0.5 mg/kg/day i.p., at end point",without significant difference in tumor volume
same,loss of muscle function measured as grip strength,"[9]; 0.5 mg/kg/day i.p., over the course of the survival study",attenuated
same,LCM-induced loss of myosin heavy chain (MHC),[10],resistant
same,LCM-induced loss of myotube mass (myotube diameters),[10],resistant

# Source: patent US20210308133A1, “METHODS AND COMPOSITIONS FOR INHIBITING MUSCLE WASTING” (THE BOARD OF REGENTS OF THE UNIVERSITY OF TEXAS SYSTEM, priority 2020, published 2021)
